Test results reported in the supplement of paper PMC10307832.

Experiments:
Assay in all cases: relative viability (nuclei count vs DMSO), 5 days (fraction); higher = more cells survive
[1] = compound: CC(C)N(CCCNC(=O)Nc1ccc(C(C)(C)C)cc1)C[C@H]1O[C@@H](n2ccc3c(N)ncnc32)[C@H](O)[C@@H]1O + Cc1nc(Nc2ncc(C(=O)Nc3c(C)cccc3Cl)s2)cc(N2CCN(CCO)CC2)n1 [Dasatinib] (partner 0.075 µM)
In short: (§1)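 Lung cancer cell lines in 1536-well plates were dosed by pin tool the day after seeding, either with one drug alone or with a fixed anchor-drug dose plus five library-drug doses (not always all listed) in √10 steps. After 5 days, cells were fixed and their nuclei stained in one step (final 0.05% Triton X-100, 1% formaldehyde, 1 ug/ml Hoechst), then counted on 4× images. Relative viability is the nuclei count in treated wells divided by that in vehicle wells. Values are medians of duplicate plates.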

[2] = compound: CC(C)=CC[C@@H](O)C1=CC(=O)c2c(O)ccc(O)c2C1=O [Shikonin] + O=C(CCCCCCC(=O)Nc1ccccc1)NO [Vorinostat] (partner 1 µM)
In short: as §1

[3] = compound: CC(C)N(CCCNC(=O)Nc1ccc(C(C)(C)C)cc1)C[C@H]1O[C@@H](n2ccc3c(N)ncnc32)[C@H](O)[C@@H]1O + O=C(CCCCCCC(=O)Nc1ccccc1)NO [Vorinostat] (partner 1 µM)
In short: as §1

[4] = compound: CC(C)N(CCCNC(=O)Nc1ccc(C(C)(C)C)cc1)C[C@H]1O[C@@H](n2ccc3c(N)ncnc32)[C@H](O)[C@@H]1O + Nc1ncn([C@H]2C[C@H](O)[C@@H](CO)O2)c(=O)n1 [Decitabine] (partner 2 µM)
In short: as §1

Row | Cell Line | relative viability ([1]; first compound 0.08 µM) | relative viability ([1]; first compound 0.253 µM) | relative viability ([1]; first compound 0.8 µM) | relative viability ([1]; first compound 2.53 µM) | relative viability ([1]; first compound 8 µM) | relative viability ([2]; first compound 0.01 µM) | relative viability ([2]; first compound 0.1 µM) | relative viability ([2]; first compound 0.3162 µM) | relative viability ([2]; first compound 1 µM) | relative viability ([3]; first compound 0.08 µM) | relative viability ([3]; first compound 0.253 µM) | relative viability ([3]; first compound 0.8 µM) | relative viability ([3]; first compound 2.53 µM) | relative viability ([3]; first compound 8 µM) | relative viability ([4]; first compound 0.08 µM) | relative viability ([4]; first compound 0.253 µM) | relative viability ([4]; first compound 0.8 µM) | relative viability ([4]; first compound 2.53 µM) | relative viability ([4]; first compound 8 µM)
1 | LXF-289 | 0.281 | 0.271 | 0.231 | 0.186 | 0.229 | 0.787 | 0.764 | 0.862 | 0.79 | 0.748 | 0.762 | 0.726 | 0.752 | 0.701 | 0.329 | 0.39 | 0.396 | 0.378 | 0.336
2 | ABC-1 | 0.62 | 0.599 | – | 0.712 | 0.524 | 1.2 | 1.15 | 1.08 | 0.837 | 1.19 | 1.29 | – | 1.07 | 0.919 | 1.03 | 1.23 | – | 1.15 | 1.32
3 | NCI-H727 | 0.381 | 0.427 | 0.345 | 0.393 | 0.333 | 1.32 | 1.44 | 1.27 | 1.14 | 1.12 | 1.23 | 1.16 | 1.04 | 1.17 | 0.907 | 0.687 | 0.885 | 0.905 | 0.973
4 | NCI-H1650 | 0.347 | 0.379 | – | 0.275 | 0.349 | 0.41 | 0.499 | 0.485 | 0.483 | 0.451 | 0.608 | 0.485 | 0.474 | 0.444 | 0.368 | 0.482 | 0.262 | 0.432 | 0.357
5 | NCI-H2087 | 0.876 | 1.03 | 0.77 | 1.04 | 0.948 | 0.624 | 0.742 | 0.696 | 0.689 | 0.681 | 0.732 | 0.929 | 0.668 | 0.512 | 0.272 | 0.303 | 0.232 | 0.336 | 0.256
6 | NCI-H1793 | 0.368 | – | 0.355 | 0.36 | 0.38 | 0.752 | 0.974 | 0.68 | 0.973 | 0.617 | – | 0.761 | 0.773 | 0.574 | 0.481 | – | 0.77 | 0.537 | 0.359
7 | LC-2-ad | 0.528 | 0.569 | 0.527 | 0.502 | 0.632 | 0.696 | 0.759 | 0.739 | 0.678 | 0.666 | 0.784 | 0.55 | 0.722 | 0.671 | 0.776 | 0.857 | 0.688 | 0.728 | 0.768
8 | COR-L 105 | 0.298 | 0.347 | 0.308 | 0.31 | 0.391 | 0.841 | 0.91 | 0.881 | 0.853 | 0.893 | 1.41 | 0.879 | 0.89 | 0.818 | 0.631 | 0.67 | 0.736 | 0.638 | 0.694
9 | NCI-H1355 | 0.71 | 0.548 | 0.379 | 0.698 | 0.668 | 0.65 | 0.623 | 0.627 | 0.604 | 0.592 | 0.632 | 0.529 | 0.642 | 0.575 | 0.338 | 0.342 | 0.414 | 0.335 | 0.342
10 | H3255 | 0.507 | 0.354 | 0.434 | 0.282 | 0.367 | 0.703 | 0.959 | 0.916 | 0.855 | 0.743 | 0.807 | 0.717 | 0.788 | 0.477 | 0.613 | 0.645 | 0.491 | 0.626 | 0.511
11 | NCI-H2009 | 0.261 | 0.281 | 0.273 | 0.288 | 0.295 | 0.918 | 0.737 | 0.789 | 0.649 | 0.728 | 0.73 | 0.703 | 0.744 | 0.675 | 0.476 | 0.418 | 0.438 | 0.39 | 0.372
12 | NCI-H1734 | 0.411 | 0.415 | 0.456 | 0.485 | 0.508 | 0.732 | 0.818 | 0.765 | 0.842 | 0.773 | 0.611 | 0.677 | 0.783 | 0.756 | 0.454 | 0.495 | 0.463 | 0.545 | 0.484
13 | HOP-62 | 0.629 | 0.615 | 0.54 | 0.577 | 0.604 | 0.663 | 0.667 | 0.739 | 0.558 | 0.711 | 0.555 | 0.445 | 0.58 | 0.458 | 0.225 | 0.207 | 0.21 | 0.195 | 0.198
14 | LOU-NH91 | 0.572 | 0.579 | 0.485 | 0.553 | 0.529 | 0.921 | 1.02 | 1.04 | 0.957 | 0.9 | 0.832 | – | 0.943 | 0.869 | 0.757 | 0.815 | – | 0.858 | 0.793
15 | ChaGo-K-1 | 0.532 | 0.672 | 0.556 | 0.552 | 0.497 | 0.746 | 0.914 | 0.8 | 0.762 | 0.785 | 0.827 | 0.756 | 0.715 | 0.766 | 0.468 | 0.545 | 0.494 | 0.522 | 0.505
16 | NCI-H23 | 0.685 | 0.645 | 0.716 | 0.798 | 0.725 | 0.611 | 0.75 | 0.59 | 0.625 | 0.582 | – | 0.557 | 0.639 | 0.549 | 0.311 | – | 0.327 | 0.298 | 0.331
17 | RERF-LC-KJ | 0.837 | 0.888 | 0.79 | 0.778 | 0.799 | 0.709 | 0.836 | 0.718 | 0.757 | 0.638 | 0.741 | 0.551 | 0.742 | 0.707 | 0.703 | 0.685 | 0.715 | 0.639 | 0.693
